Ki data for 35 compounds are collected here from ChEMBL document CHEMBL1132784, “Dibasic inhibitors of human mast cell tryptase. Part 2: structure-activity relationships and requirements for potent activity” (Bioorg Med Chem Lett, 2000).

Each structure is given as a SMILES string. A value given as a limit tells only on which side of the number the result lay.

For one experiment, the target named is Prothrombin (Homo sapiens, UniProt P00734). The experiment can be described thus: Compound was evaluated for its inhibitory potency against thrombin.
A further experiment has as its target Serine protease 1 (Homo sapiens, UniProt P07477). Kind of experiment: Compound was evaluated for its inhibitory potency against trypsin.
Another experiment concerns the target Tryptase (Homo sapiens, UniProt Q9BZJ3+Q15661+Q9NRR2). Kind of experiment: Evaluated for its inhibitory potency against tryptase. It counts as protein assay.
Another experiment deals with Plasminogen (Homo sapiens, UniProt P00747). The experiment can be described thus: Compound was evaluated for its inhibitory potency against plasmin.
Sequence of Plasminogen (P00747 97-580 limits assumed): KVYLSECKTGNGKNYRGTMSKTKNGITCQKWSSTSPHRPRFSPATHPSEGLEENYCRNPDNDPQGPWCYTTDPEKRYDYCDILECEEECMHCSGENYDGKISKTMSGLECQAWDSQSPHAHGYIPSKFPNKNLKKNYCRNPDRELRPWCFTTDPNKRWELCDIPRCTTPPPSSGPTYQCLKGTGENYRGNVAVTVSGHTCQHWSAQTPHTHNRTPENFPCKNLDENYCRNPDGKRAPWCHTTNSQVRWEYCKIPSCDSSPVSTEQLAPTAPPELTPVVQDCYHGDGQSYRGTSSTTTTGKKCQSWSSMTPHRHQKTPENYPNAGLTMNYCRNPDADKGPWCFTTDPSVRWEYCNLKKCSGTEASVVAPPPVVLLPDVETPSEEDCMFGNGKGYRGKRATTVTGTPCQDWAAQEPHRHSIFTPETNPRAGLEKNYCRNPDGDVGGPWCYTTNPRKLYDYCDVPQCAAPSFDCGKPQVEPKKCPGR
Sequence of Plasminogen (P00747 581-810 limits assumed): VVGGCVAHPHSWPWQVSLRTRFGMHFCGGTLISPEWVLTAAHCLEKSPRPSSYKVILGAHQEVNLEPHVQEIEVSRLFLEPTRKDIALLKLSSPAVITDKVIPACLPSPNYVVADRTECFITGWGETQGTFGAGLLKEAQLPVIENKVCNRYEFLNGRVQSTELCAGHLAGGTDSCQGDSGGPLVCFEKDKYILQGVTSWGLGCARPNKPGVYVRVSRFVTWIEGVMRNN

Sequence of Serine protease 1 (P07477 whole entry): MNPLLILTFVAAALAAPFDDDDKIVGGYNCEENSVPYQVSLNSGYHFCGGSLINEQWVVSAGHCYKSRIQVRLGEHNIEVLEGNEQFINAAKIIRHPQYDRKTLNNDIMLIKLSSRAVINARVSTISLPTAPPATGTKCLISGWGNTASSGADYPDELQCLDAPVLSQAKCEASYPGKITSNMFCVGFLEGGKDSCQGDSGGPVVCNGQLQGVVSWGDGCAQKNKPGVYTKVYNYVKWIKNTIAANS

Take `N=C(N)Nc1ccc(CNC(=O)N2CCN(C(=O)O[C@H]3CCC[C@@H](OC(=O)N4CCN(C(=O)NCCc5ccncc5)CC4)CCC3)CC2)cc1`: the Ki is > 1 mM on Prothrombin, 131 µM on Serine protease 1, 0.9 µM on Tryptase and > 1 mM on Plasminogen.

On to `NC[C@H]1CC[C@H](CNC(=O)N2CCN(C(=O)O[C@H]3CCC[C@@H](OC(=O)N4CCN(C(=O)NC[C@H]5CC[C@H](CN)CC5)CC4)CCC3)CC2)CC1`, for which the Ki is > 1 mM at Prothrombin, > 1000 µM on Serine protease 1, 0.016 µM at Tryptase and > 1 mM at Plasminogen.

As to `N=C(N)Nc1ccc(CNC(=O)N2CCN(C(=O)O[C@H]3CCC[C@@H](OC(=O)N4CCN(C(=O)CCCCCn5ccnc5)CC4)CCC3)CC2)cc1`, the Ki at Prothrombin is > 1 mM; at Serine protease 1 it was 171 µM; on Tryptase it was 0.03 µM; on Plasminogen, > 1 mM.

On to `N=C(N)Nc1ccc(CNC(=O)N2CCN(C(=O)O[C@@H]3CO[C@H]4[C@@H]3OC[C@H]4OC(=O)N3CCN(C(=O)NCc4ccc(NC(=N)N)cc4)CC3)CC2)cc1`, for which the Ki at Prothrombin stood at 0.138 mM; at Serine protease 1, 15 µM; at Plasminogen, 0.7 mM.

Turning to `N=C(N)Nc1ccc(CCC(=O)N2CCN(C(=O)O[C@H]3CCC[C@@H](OC(=O)N4CCN(C(=O)CCc5ccc(NC(=N)N)cc5)CC4)CCC3)CC2)cc1`, the Ki at Prothrombin was 0.537 mM; on Serine protease 1, > 1000 µM; at Tryptase, 0.21 µM; at Plasminogen, > 1 mM.

Take `O=C(NCCC1CCNCC1)N1CCN(C(=O)O[C@H]2CCC[C@@H](OC(=O)N3CCN(C(=O)NCCC4CCNCC4)CC3)CCC2)CC1`: the Ki is > 1 mM on Prothrombin, > 1000 µM at Serine protease 1, 0.115 µM on Tryptase and > 1 mM on Plasminogen.

In the case of `NCCc1ccc(CCNC(=O)N2CCN(C(=O)O[C@H]3CCC[C@@H](OC(=O)N4CCN(C(=O)NCCc5ccc(CCN)cc5)CC4)CCC3)CC2)cc1`, the Ki at Prothrombin is > 1 mM; at Serine protease 1 it was > 1000 µM; on Tryptase, 1 µM; on Plasminogen, 0.57 mM.

For `N=C(N)Nc1ccc(CNC(=O)N2CCN(C(=O)O[C@H]3CCC[C@@H](OC(=O)N4CCN(C(=O)NCCCN)CC4)CCC3)CC2)cc1`, the Ki on Prothrombin is > 1 mM; at Serine protease 1, 138 µM; at Tryptase, 0.044 µM; on Plasminogen, > 1 mM.

In the case of `N=C(N)Nc1ccc(CNC(=O)N2CCN(C(=O)O[C@H]3C[C@H]4C[C@@H](OC(=O)N5CCN(C(=O)NCc6ccc(NC(=N)N)cc6)CC5)C[C@H]4C3)CC2)cc1`, the Ki on Prothrombin is > 1 mM; on Serine protease 1 it was 4 µM; on Tryptase, 0.028 µM.

`N=C(N)Nc1ccc(CNC(=O)N2CCN(C(=O)O[C@H]3CCC[C@@H](OC(=O)N4CCN(C(=O)CCCC5CCNCC5)CC4)CCC3)CC2)cc1`: the Ki on Prothrombin was > 1 mM; at Serine protease 1, 262 µM; at Tryptase, 0.004 µM; at Plasminogen, > 1 mM.

As for `N=C(N)Nc1ccc(CNC(=O)N2CCN(C(=O)OC[C@H]3CC[C@H](COC(=O)N4CCN(C(=O)NCc5ccc(NC(=N)N)cc5)CC4)CC3)CC2)cc1`, the figures for the Ki on Serine protease 1, at Tryptase and on Plasminogen were 28 µM, 0.003 µM and > 1 mM, respectively.

As to `N=C(N)Nc1ccc(CNC(=O)N2CCN(C(=O)O[C@H]3CCC[C@@H](OC(=O)N4CCN(C(=O)NC[C@H]5CC[C@H](N)CC5)CC4)CCC3)CC2)cc1`, the Ki on Prothrombin is > 1 mM; at Serine protease 1, 141 µM; at Tryptase it was 0.001 µM; at Plasminogen, > 1 mM.

For `N=C(N)Nc1ccc(CNC(=O)N2CCN(C(=O)O[C@H]3CCC[C@@H](OC(=O)N4CCN(C(=O)CCc5ccc(N)nc5)CC4)CCC3)CC2)cc1`, the Ki on Prothrombin is > 1 mM; at Serine protease 1, 156 µM; at Tryptase, 0.18 µM; on Plasminogen, > 1 mM.

For the compound `N=C(N)Nc1ccc(CNC(=O)N2CCN(C(=O)O[C@H]3CCC[C@@H](OC(=O)N4CCN(C(=O)NCCC5CCNCC5)CC4)CCC3)CC2)cc1`, the Ki at Prothrombin is > 1 mM; on Serine protease 1, 121 µM; at Tryptase, 0.003 µM; on Plasminogen, > 1 mM.

Take `N=C(N)Nc1ccc(CNC(=O)N2CCN(C(=O)CCCCCCC(=O)N3CCN(C(=O)NCc4ccc(NC(=N)N)cc4)CC3)CC2)cc1`: the Ki is > 1 mM on Prothrombin, 34 µM at Serine protease 1, 0.0001 µM on Tryptase and > 1 mM on Plasminogen.

As to `NCC12CCC(CNC(=O)N3CCN(C(=O)O[C@H]4CCC[C@@H](OC(=O)N5CCN(C(=O)NCC67CCC(CN)(CC6)CC7)CC5)CCC4)CC3)(CC1)CC2`, the Ki on Prothrombin is > 1 mM; at Serine protease 1, 95 µM; on Tryptase, 0.3 µM; on Plasminogen, > 1 mM.

For the compound `CN(CCC1CCNCC1)C(=O)N1CCN(C(=O)O[C@H]2CCC[C@@H](OC(=O)N3CCN(C(=O)NCc4ccc(NC(=N)N)cc4)CC3)CCC2)CC1`, the Ki at Prothrombin is > 1 mM; at Serine protease 1 it was 126 µM; at Tryptase, 0.68 µM; at Plasminogen, > 1 mM.

Regarding `NCc1ccc(CNC(=O)N2CCN(C(=O)O[C@H]3CCC[C@@H](OC(=O)N4CCN(C(=O)NCc5ccc(CN)cc5)CC4)CCC3)CC2)cc1`, the Ki was > 1 mM on Prothrombin, 219 µM at Serine protease 1, 0.0001 µM on Tryptase and > 1 mM on Plasminogen.

With `O=C(NCc1ccccc1)N1CCN(C(=O)O[C@H]2CCC[C@@H](OC(=O)N3CCN(C(=O)NCc4ccccc4)CC3)CCC2)CC1`, the Ki on Tryptase was 101 µM.

For `N=C(N)c1ccc(CCC(=O)N2CCN(C(=O)O[C@H]3CCC[C@@H](OC(=O)N4CCN(C(=O)CCc5ccc(C(=N)N)cc5)CC4)CCC3)CC2)cc1`, the Ki came to 0.029 mM on Prothrombin, 21 µM on Serine protease 1, 0.0004 µM at Tryptase and 0.066 mM at Plasminogen.

`NCCc1ccc(CC(=O)N2CCN(C(=O)O[C@H]3CCC[C@@H](OC(=O)N4CCN(C(=O)Cc5ccc(CCN)cc5)CC4)CCC3)CC2)cc1`: the Ki on Prothrombin is > 1 mM; on Serine protease 1 it was > 1000 µM; on Tryptase, 0.002 µM; on Plasminogen, > 1 mM.

Take `N=C(N)Nc1ccc(CNC(=O)N2CCN(C(=O)OCc3ccc(COC(=O)N4CCN(C(=O)NCc5ccc(NC(=N)N)cc5)CC4)cc3)CC2)cc1`: the Ki was > 1 mM at Prothrombin, 17 µM on Serine protease 1, 0.0004 µM on Tryptase and > 1 mM on Plasminogen.

As for `N=C(N)N1CCC(CCC(=O)N2CCN(C(=O)O[C@H]3CCC[C@@H](OC(=O)N4CCN(C(=O)CCC5CCN(C(=N)N)CC5)CC4)CCC3)CC2)CC1`, the Ki on Prothrombin is 0.213 mM; on Serine protease 1, 171 µM; on Tryptase it was 0.002 µM; at Plasminogen, > 1 mM.

Consider `N=C(N)Nc1ccc(CNC(=O)N2CCN(C(=O)CCCCCC(=O)N3CCN(C(=O)NCc4ccc(NC(=N)N)cc4)CC3)CC2)cc1`, for which the Ki was > 1 mM on Prothrombin, 52 µM at Serine protease 1, 0.004 µM at Tryptase and > 1 mM at Plasminogen.

Turning to `N=C(N)Nc1ccc(CNC(=O)N2CCN(C(=O)CCCCCCCCC(=O)N3CCN(C(=O)NCc4ccc(NC(=N)N)cc4)CC3)CC2)cc1`, the Ki on Prothrombin was > 1 mM; on Serine protease 1, 20 µM; on Tryptase, 0.0007 µM; on Plasminogen it was > 1 mM.

Consider `N=C(N)Nc1ccc(CNC(=O)N2CCN(C(=O)O[C@H]3CCC[C@@H](OC(=O)N4CCN(C(=O)CCCn5ccnc5)CC4)CCC3)CC2)cc1`, for which the Ki is > 1 mM on Prothrombin, 158 µM at Serine protease 1, > 1000 µM at Tryptase and > 1 mM at Plasminogen.

Take `N=C(N)N1CCC(CCNC(=O)N2CCN(C(=O)O[C@H]3CCC[C@@H](OC(=O)N4CCN(C(=O)NCCC5CCN(C(=N)N)CC5)CC4)CCC3)CC2)CC1`: the Ki on Prothrombin amounted to 0.112 mM; at Serine protease 1 it was 850 µM; on Tryptase, 0.03 µM; on Plasminogen, 0.632 mM.

`N=C(N)Nc1ccc(CNC(=O)N2CCN(C(=O)O[C@H]3CCC[C@@H](OC(=O)N4CCN(C(=O)NC[C@H]5CC[C@@H](N)CC5)CC4)CCC3)CC2)cc1`: the Ki at Prothrombin is 0.274 mM; on Serine protease 1, 171 µM; at Tryptase, 0.078 µM; on Plasminogen, > 1 mM.

For `NCCCCNC(=O)N1CCN(C(=O)O[C@H]2CCC[C@@H](OC(=O)N3CCN(C(=O)NCCCCN)CC3)CCC2)CC1`, the Ki on Prothrombin was > 1 mM; on Serine protease 1 it was > 1000 µM; on Tryptase, 0.51 µM; at Plasminogen, > 1 mM.

As to `CN1CCC(CCNC(=O)N2CCN(C(=O)O[C@H]3CCC[C@@H](OC(=O)N4CCN(C(=O)NCc5ccc(NC(=N)N)cc5)CC4)CCC3)CC2)CC1`, the Ki at Prothrombin was 0.269 mM; at Serine protease 1, 110 µM; at Tryptase, 3 µM; on Plasminogen it was > 1 mM.

Consider `N=C(N)N1CCC(CNC(=O)N2CCN(C(=O)O[C@H]3CCC[C@@H](OC(=O)N4CCN(C(=O)NCC5CCN(C(=N)N)CC5)CC4)CCC3)CC2)CC1`, for which the Ki on Prothrombin is 0.146 mM; on Serine protease 1, > 1000 µM; at Tryptase, 0.61 µM; at Plasminogen, > 1 mM.

As to `N=C(N)Nc1ccc(CNC(=O)N2CCN(C(=O)O[C@H]3CCC[C@@H](OC(=O)N4CCN(C(=O)NCCCC5CCNCC5)CC4)CCC3)CC2)cc1`, the Ki at Prothrombin was > 1 mM; on Serine protease 1, 80 µM; at Tryptase, 0.24 µM; on Plasminogen it was > 1 mM.

Turning to `N=C(N)Nc1ccc(CNC(=O)N2CCN(C(=O)O[C@H]3CCC[C@@H](OC(=O)N4CCN(C(=O)NCc5ccccc5)CC4)CCC3)CC2)cc1`, the Ki on Tryptase is 15 µM.

With `N=C(N)Nc1ccc(CNC(=O)N2CCN(C(=O)O[C@H]3CCC[C@@H](OC(=O)N4CCN(C(=O)CCCCn5ccnc5)CC4)CCC3)CC2)cc1`, the Ki is > 1 mM on Prothrombin, 144 µM at Serine protease 1, 1 µM on Tryptase and > 1 mM on Plasminogen.

On to `N=C(N)Nc1ccc(CNC(=O)N2CCN(C(=O)O[C@H]3CCC[C@@H](OC(=O)N4CCN(C(=O)NCCCCN)CC4)CCC3)CC2)cc1`, for which the Ki at Prothrombin is > 1 mM; at Serine protease 1, 132 µM; on Tryptase, 0.004 µM; on Plasminogen, > 1 mM.
